The subject of the experiment is HIV. Put plainly: MT4 Assay (anti-HIV activity). The format is cell-based. The following applies: Human immunodeficiency virus 1, 96 h, read-out: HIV MT4 Assay IC50, HTLV-1 transformed cell line MT-4, cell titer glo, 10 point dose response curve. The protocol: Antiviral HIV activity and cytotoxicity values for compounds of the invention from Table 1 were measured in parallel in the HTLV-1 transformed cell line MT-4 based on the method previously described (Hazen et al., 2007, In vitro antiviral activity of the novel, tyrosyl-based human immunodeficiency virus (HIV) type 1 protease inhibitor brecanavir (GW640385) in combination with other antiretrovirals and against a panel of protease inhibitor-resistant HIV (Hazen et al., “In vitro antiviral activity of the novel, tyrosyl-based human immunodeficiency virus (HIV) type 1 protease inhibitor brecanavir (GW640385) in combination with other antiretrovirals and against a panel of protease inhibitor-resistant HIV”, Antimicrob. Agents Chemother. 2007, 51: 3147-3154; and Pauwels et al., “Sensitive and rapid assay on MT-4 cells for the detection of antiviral compounds against the AIDS virus”, J. of Virological Methods 1987, 16: 171-185).
Luciferase activity was measured 96 hours later by adding a cell titer glo (Promega, Madison, Wis.). Percent inhibition of cell protection data was plotted relative to no compound control. Under the same condition, cytotoxicity of the compounds was determined using cell titer glo (Promega, Madison, Wis.). IC50s were determined from a 10 point dose response curve using 3-4-fold serial dilution for each compound, which spans a concentration range >1000 fold.
For orientation: In ATP-based viability assays light output follows the ATP content of the culture.

Structures are written as SMILES.

Broadly, the IC50 is the concentration needed to halve the response being measured. Regarding `Cn1c(C(OC(C)(C)C)C(=O)O)c(-c2ccc3ccccc3c2)c2ccccc2c1=O` (centres unmarked) [Example 64, 2-(tert-butoxy)-2-[2-methyl-4-(naphthalen-2-yl)-1-oxo-1,2-dihydroisoquinolin-3-yl]acetic acid], the IC50 came out at 8700 nM.
As to `Cc1cccc(-c2ccc3c(-c4cc(F)c5c(c4C)CCCO5)c([C@H](OC(C)(C)C)C(=O)O)n(C)c(=O)c3c2)n1` (atropisomer, axis not shown; (M)) [Example 173, (2S)(M)-[(1,1-dimethylethyl)oxy][4-(8-fluoro-5-methyl-3,4-dihydro-2H-chromen-6-yl)-2-methyl-7-(6-methyl-2-pyridinyl)-1-oxo-1,2-dihydro-3-isoquinolinyl]ethanoic acid], the IC50 was determined as 120 nM.
`Cc1c(-c2c([C@H](OC(C)(C)C)C(=O)O)n(C)c(=O)c3cc(Nc4ccc(Cl)c(F)c4)ccc23)cc(F)c2c1CCCO2` (atropisomer, axis not shown; (M)) [Example 165, (2S)(M)-[7-[(4-chloro-3-fluorophenyl)amino]-4-(8-fluoro-5-methyl-3,4-dihydro-2H-chromen-6-yl)-2-methyl-1-oxo-1,2-dihydro-3-isoquinolinyl][(1,1-dimethylethyl)oxy]ethanoic acid]: the IC50 is 100 nM.
On to `Cc1c(-c2c(C(OC(C)(C)C)C(=O)O)n(C)c(=O)c3cc(OCc4ccc(Cl)cc4)ccc23)ccc2c1CCCO2` (centres unmarked) [Example 136, 2-(tert-butoxy)-2-{7-[(4-chlorophenyl)methoxy]-2-methyl-4-(5-methyl-3,4-dihydro-2H-1-benzopyran-6-yl)-1-oxo-1,2-dihydroisoquinolin-3-yl}acetic acid], for which the IC50 is 100 nM.
On to `Cn1c(C(OC(C)(C)C)C(=O)O)c(-c2ccc(F)cc2)c2ccccc2c1=O` (centres unmarked) [Example 9, 2-(tert-butoxy)-2-[4-(4-fluorophenyl)-2-methyl-1-oxo-1,2-dihydroisoquinolin-3-yl]acetic acid], for which the half-inhibitory concentration (IC50) was found to be 1330 nM.
The figure for `Cc1nc(COc2ccc3c(-c4cc(F)c5c(c4C)CCCO5)c(C(OC(C)(C)C)C(=O)O)n(C)c(=O)c3c2)c(C)o1` (centres unmarked) [Example 133, 2-(tert-butoxy)-2-{7-[(dimethyl-1,3-oxazol-4-yl)methoxy]-4-(8-fluoro-5-methyl-3,4-dihydro-2H-1-benzopyran-6-yl)-2-methyl-1-oxo-1,2-dihydroisoquinolin-3-yl}acetic acid] is 930 nM; for `CC1CCOc2ccc(-c3c(C(OC(C)(C)C)C(=O)O)n(C)c(=O)c4ccccc34)cc21` (centres unmarked) [Example 149, [(1,1-dimethylethyl)oxy][2-methyl-4-(4-methyl-3,4-dihydro-2H-chromen-6-yl)-1-oxo-1,2-dihydro-3-isoquinolinyl]acetic acid] it is 1170 nM; for `Cc1ccc(-c2c(C(OC(C)(C)C)C(=O)O)n(C)c(=O)c3cc(CN4CCOCC4)ccc23)cc1C` (centres unmarked) [Example 181] it is 270 nM.
For `Cc1ccc(-c2c(C(OC(C)(C)C)C(=O)O)n(C)c(=O)c3cc(-c4cccn4C)ccc23)cc1C` (centres unmarked) [Example 191, [(1,1′-dimethylethyl)oxy][4-(3,4-dimethylphenyl)-2-methyl-7-(1-methyl-1H-pyrrol-2-yl)-1-oxo-1,2-dihydro-3-isoquinolinyl]acetic acid], the half-maximal inhibitory concentration (IC50) came to 350 nM.
On to `Cn1c(C(OC(C)(C)C)C(=O)O)c(-c2ccc(F)c(F)c2)c2ccccc2c1=O` (centres unmarked) [Example 38, 2-(tert-butoxy)-2-[4-(3,4-difluorophenyl)-2-methyl-1-oxo-1,2-dihydroisoquinolin-3-yl]acetic acid], for which the IC50 is 2410 nM.
Turning to `Cn1c(C(OC(C)(C)C)C(=O)O)c(-c2cccc(OC(F)(F)F)c2)c2ccccc2c1=O` (centres unmarked) [Example 16, 2-(tert-butoxy)-2-{2-methyl-1-oxo-4-[3-(trifluoromethoxy)phenyl]-1,2-dihydroisoquinolin-3-yl}acetic acid], the IC50 came out at 20700 nM.
Consider `Cn1c(C(OC(C)(C)C)C(=O)O)c(-c2ccc(Cl)cc2)c2ccccc2c1=O` (centres unmarked) [Example 154, [4-(4-chlorophenyl)-2-methyl-1-oxo-1,2-dihydro-3-isoquinolinyl][(1,1-dimethylethyl)oxy]acetic acid], for which the IC50 was 2090 nM.
The figure for `Cn1c(C(OC(C)(C)C)C(=O)O)c(-c2ccccc2)c2ccccc2c1=O` (centres unmarked) [Example 156, [(1,1-dimethylethyl)oxy](2-methyl-1-oxo-4-phenyl-1,2-dihydro-3-isoquinolinyl)acetic acid] is 800 nM; for `COc1c(C)cc(-c2c(C(OC(C)(C)C)C(=O)O)n(C)c(=O)c3ccccc23)cc1C` (centres unmarked) [Example 1, tert-Butoxy-[4-(4-methoxy-3,5-dimethyl-phenyl)-2-methyl-1-oxo-1,2-dihydro-isoquinolin-3-yl]-acetic acid] it is 6590 nM; for `Cc1ccc(N(C)c2c(C(OC(C)(C)C)C(=O)O)n(C)c(=O)c3ccccc23)cc1C` (centres unmarked) [Example 212, 2-(tert-Butoxy)-2-(4-((3,4-dimethylphenyl)(methyl)amino)-2-methyl-1-oxo-1,2-dihydroisoquinolin-3-yl)acetic acid] it is 50000 nM.
As to `Cc1c(-c2c([C@H](OC(C)(C)C)C(=O)O)n(C)c(=O)c3cc(-c4ccc(F)cc4)ccc23)cc(F)c2c1CCCO2` (atropisomer, axis not shown; (M)) [Example 209, (S)(M)-2-(tert-butoxy)-2-(4-(8-fluoro-5-methylchroman-6-yl)-7-(4-fluorophenyl)-2-methyl-1-oxo-1,2-dihydroisoquinolin-3-yl)acetic acid], the concentration for half-maximal inhibition (IC50) is 20 nM.
As for `CCc1ccc(-c2c(C(OC(C)(C)C)C(=O)O)n(C)c(=O)c3ccccc23)cc1` (centres unmarked) [Example 47, 2-(tert-butoxy)-2-[4-(4-ethylphenyl)-2-methyl-1-oxo-1,2-dihydroisoquinolin-3-yl]acetic acid], the IC50 is 1850 nM.
Turning to `COc1cc2c(=O)n(C)c(C(OC(C)(C)C)C(=O)O)c(-c3ccc4c(c3C)CCCO4)c2cc1C` (centres unmarked) [Example 120, 2-(tert-butoxy)-2-[7-methoxy-2,6-dimethyl-4-(5-methyl-3,4-dihydro-2H-1-benzopyran-6-yl)-1-oxo-1,2-dihydroisoquinolin-3-yl]acetic acid], the IC50 was 230 nM.
`Cc1c(-c2c([C@H](OC(C)(C)C)C(=O)NO)n(C)c(=O)c3ccccc23)cc(F)c2c1CCCO2` (atropisomer, axis not shown; (M)) [Example 213, (S)(M)-2-(tert-butoxy)-2-(4-(8-fluoro-5-methylchroman-6-yl)-2-methyl-1-oxo-1,2-dihydroisoquinolin-3-yl)-N-hydroxyacetamide]: the IC50 is 5250 nM.
Turning to `Cc1ccc(-c2c(C(OC(C)(C)C)C(=O)O)n(C)c(=O)c3cc(CNS(=O)(=O)N(C)C)ccc23)cc1C` (centres unmarked) [Example 188, 2-(tert-butoxy)-2-(4-(3,4-dimethylphenyl)-7-(((N,N-dimethylsulfamoyl)amino)methyl)-2-methyl-1-oxo-1,2-dihydroisoquinolin-3-yl)acetic acid], the IC50 amounted to 3700 nM.
With `Cn1c(C(OC(C)(C)C)C(=O)O)c(-c2cc3c4c(c2)CCCN4CCC3)c2ccccc2c1=O` (centres unmarked) [Example 158, [(1,1-dimethylethyl)oxy][2-methyl-1-oxo-4-(2,3,6,7-tetrahydro-1H,5H-pyrido[3,2,1-ij]quinolin-9-yl)-1,2-dihydro-3-isoquinolinyl]acetic acid], the IC50 was determined as 50000 nM.
For `Cc1c(-c2c([C@H](OC(C)(C)C)C(=O)O)n(C)c(=O)c3cc(Cc4ccccc4)ccc23)cc(F)c2c1CCCO2` (atropisomer, axis not shown; (M)) [Example 175, (2S)(M)-[(1,1-dimethylethyl)oxy][4-(8-fluoro-5-methyl-3,4-dihydro-2H-chromen-6-yl)-2-methyl-1-oxo-7-(phenylmethyl)-1,2-dihydro-3-isoquinolinyl]ethanoic acid], the IC50 stood at 70 nM.
As for `Cc1ccc(-c2c(C(OC(C)(C)C)C(=O)O)n(C)c(=O)c3cc(CN(Cc4ccccn4)Cc4ccccn4)ccc23)cc1C` (centres unmarked) [Example 182, 2-(7-((bis(pyridin-2-ylmethyl)amino)methyl)-4-(3,4-dimethylphenyl)-2-methyl-1-oxo-1,2-dihydroisoquinolin-3-yl)-2-(tert-butoxy)acetic acid], the IC50 amounted to 1380 nM.
On to `Cc1ccc(-c2c(C(OC(C)(C)C)C(=O)O)n(C)c(=O)c3cc(C(N)=O)ccc23)cc1C` (centres unmarked) [Example 178, [7-(aminocarbonyl)-4-(3,4-dimethylphenyl)-2-methyl-1-oxo-1,2-dihydro-3-isoquinolinyl][(1,1-dimethylethyl)oxy]acetic acid], for which the IC50 amounted to 50000 nM.
Consider `Cc1cc(-c2c(C(OC(C)(C)C)C(=O)O)n(C)c(=O)c3ccccc23)cc(C)c1Cl` (centres unmarked) [Example 66, 2-(tert-butoxy)-2-[4-(4-chloro-3,5-dimethylphenyl)-2-methyl-1-oxo-1,2-dihydroisoquinolin-3-yl]acetic acid], for which the IC50 was 3600 nM.
`Cc1c(-c2c([C@H](OC(C)(C)C)C(=O)O)n(C)c(=O)c3ccccc23)ccc2c1CCCO2` [Example 140, (2S)-2-(tert-butoxy)-2-[2-methyl-4-(5-methyl-3,4-dihydro-2H-1-benzopyran-6-yl)-1-oxo-1,2-dihydroisoquinolin-3-yl]acetic acid]: the IC50 worked out at 110 nM.

The values above are taken from patent US9029391B2 (priority 2011, dated 2015).
